One series deals with PMC42-LA cells. Briefly: Organoid differentiation on matrigel. The format is cell-based. Here is the method:
(§1) Cancer cell lines: MDA-MB-231, BT-20, Panc-1, OVCAR-3, 4T1 and RENCA were obtained from ATCC. Epithelial breast adenocarcinoma cell line PMC42-LA, were kindly provided by Dr. Ackland. Mia-Paca cells were kindly provided by Dr. George Zogopoulos. All cancer cell lines were cultured in RPMI1640× with 10% fetal bovine serum with 1% penicillin/streptomycin, and maintained at 37° C. in 5% atmosphere of CO2. In the case of growth factor stimulation, cells were serum starved for no longer than 12H, and then stimulated with 20 ng/ml EGF for 40 minutes.
In order to confirm that the reduction of CSC markers by Compound 1 correlates with loss of stem-cell properties, the effect of Compound 1 was investigated on the differentiation capability of a well-established PMC42-LA breast cell line. PMC42-LA cells treated with the appropriate concentrations of Compound 1 were also plated on Compound 1 containing matrigel and allowed to form organoids. Since the defining characteristic of stem cells is pluripotency—the capacity of a cell to differentiate into varying progenies, then Compound 1 may inhibit the differentiation process in those PMC42-LA cells. In the absence of drug treatment, PMC42-LA cells undergo differentiation into secretory organoids when cultured on matrigel.

A further series deals with MDA-MB-231 cells. Briefly: Tumorsphere formation. The format is cell-based. The note with it: MDA-MB-231, 1 μM for 72H, reseeded in suspension. Here is the method:
as §1
(§2) After treatment with 1 μM Compound 1 for 72H, MDA-MB-231 and BT-20 cells were digested with 0.25% trypsin and reseeded at 2.5×10^4 cells/ml in 60 mm Ultralow Adherence plates (Corning) in DMEM/F12 supplemented with 5 ug/ml human insulin, 20 ng/ml human epidermal growth factor, 0.5 ug/ml hydrocortisone and 2% B27 (Invitrogen). Tumorspheres were then visualized (FIG. 1A) and then quantified (FIG. 1B). An important feature of cancer stem-like cells is their enhanced tumorsphere forming potential when grown in suspension. The tumorsphere forming capacity of Compound 1-treated MDA-MB-231 and BT-20 were analyzed in FIG. 1A. Consistent with previous characterization of these cells, in the absence of Compound 1, both MDA-MB-231 and BT-20 are capable of propagating as small individual tumorspheres that survive passaging.

The test system of a further series is BT-20 cells. Briefly: Tumorsphere formation. The format is cell-based. The settings on record: BT-20, 1 μM for 72H, reseeded in suspension. Here is the method:
as §1, §2

For a further series, the system named is cell mobility. Briefly: Live cell locomotion assay. The format is cell-based. The note with it: moderate doses; 10 ng/mL EGF stimulation. Here is the method: Cells were seeded at very low density on multi-well chambered coverglass (LabTek, Rochester, N.Y., USA). After starving, cells were stimulated with 10 ng/mL EGF and plated on a heated humidified stage supplied with 5% CO2. Phase contrast time-lapse images were captured every five minutes for three hours by optimized Nipkow spinning disk confocal microscope (WaveFx spinning disk, Quorum Technologies Inc, Guelph, ON, Canada). Cell motility was measured by tracing the cell periphery manually using Volocity software (Perkin Elmer, Waltham, Mass., USA).
To further confirm Compound 1's anti-metastatic potential, we conducted a live cell locomotion assay to quantify cell movement speed.

For the next series, the system named is cell cycle. Briefly: Cell cycle analysis (FACS, propidium iodide staining). The format is cell-based. Here is the method:
Cell cycles were synchronized prior to treatment through overnight serum deprivation. After treatment, cells were fixed and permeabilized using BD Cytofix/Cytoperm reagent (BD Bioscience), washed with PBS, and treated with 100 μg/ml Bovine Pancreas RNase A (US Biological). Cells were then stained with 25 μg/ml propidium iodide (Sigma) for 15 minutes and then immediately analyzed by flow cytometry using BD FACScalibur. The data was analyzed using FCS Express software.
It was observed during Compound 1 treatment that the targeting effect against stem-like cells is visibly associated with morphological changes resembling cell polyploidization, the accumulation of multiple DNA copies in a cell. This biological phenomenon sometimes occur as part of cell differentiation and is often associated with disruption of normal cell cycle. The identification of Aurora kinases (described below) as targets of Compound 1 supports the possible impact on cell division. Therefore the effect of Compound 1 on cell cycle using FACS analysis to measure propidium iodide staining was investigated.

Series [1] has as its system 4T1/M (triple-negative breast cancer). The series can be described thus: In vivo distant metastasis and primary tumor growth, orthotopic transplant. The settings on record: 4T1/M in Balb/c mice, PO. The text has this:
(§3) In vivo studies were approved by McGill Animal Care Committee. Cells growing in exponential phase of growth (1×10^6 cells/mouse) were transplanted into the mammary fat pad of female SCID (MDA231/M) or Balb/c (4T1) mice. Mia-PaCa cells and RENCA cells were implanted subcutaneously in SCID or Balb/c mice respectively. When primary tumors became palpable mice were randomized and blindly assigned treatment groups. Treatment was given PO for 4 cycles (3 times a week: day 1, day 3, day 5) (n=8-10 mice per condition). Control mice received the vehicle alone (1% DMSO in physiologic solution). […] Tumor size was measured using a caliper. At the study termination (60-90 days) primary tumors were excised and weighted. The lungs were fixed in 10% Bouin's fixative and lung surface metastases were counted using a stereomicroscope.

Series [2] concerns MDA-231/M (human triple-negative breast cancer). The series is described as above. The settings on record: MDA-231/M in SCID mice, PO.
Source text: as §3

The subject of series [3] is Mia-PaCa (human pancreatic carcinoma). Briefly: In vivo primary tumor growth, subcutaneous implant. Details: species or system SCID mice.
Source text: as §3

Another series can be described thus: Pilot toxicity study. The format is in vivo, mice. The note with it: doses even superior to 30 mg/kg, PO, 3 times a week, 4 cycles.
Source text: as §3

Series [4] relates to RENCA (renal adenocarcinoma). Briefly: In vivo primary tumor growth, subcutaneous implant. Details: species or system Balb/c mice.
Source text: as §3

For series [5], the system named is breast cancer metastasis to the lung. The series can be described thus: In vivo invasive breast cancer models, metastasis to the lung. The settings on record: 30 mg/kg and below given bi-weekly for 3 weeks.
Source text: These kinases are directly involved in pathways controlling cell differentiation programs, metastasis signaling, as well as EMT and CSC programming and their overexpression was reported to predict decreased metastasis-free survival.
as §3, with “Treatment was given PO for 4 cycles (3 times a week: day 1, day 3, day 5) (n=8-10 mice per condition).” left out

Each structure is given as a SMILES string.

Regarding `O=c1c2ccccc2[se]n1-c1nc(NC2CCCCC2)c2nc[nH]c2n1` [Compound 1], in the series on PMC42-LA cells, the “differentiation and expansion of colonies into larger organoid structures” value was “visibly prevented the differentiation and expansion of these colonies into larger organoid structures”; the “number of overall colonies” value is “did not reduce the number of overall colonies”. Also, in the series on MDA-MB-231 cells, the viable tumorspheres result is reported as “dramatic reduction in viable tumorspheres”. Besides, the viable tumorspheres result in the series on BT-20 cells is recorded as “dramatic reduction in viable tumorspheres”. Moreover, in the series with cell mobility, the “limitation of the rate of cell mobility” value is recorded as 2-3 fold. Also, the “accumulation of polyploidic cells” value with cell cycle was “induces a dose-dependent accumulation of polyploidic cells”.

Regarding `O=c1c2ccccc2[se]n1-c1nc(N[C@H]2CC[Se]C2)c2nc[nH]c2n1` [Compound 4], the “Primary tumor weight” value is listed as 0.5 ± 0.10 g in series [1] (at study termination); 0.2 ± 0.08 g in series [2] (at study termination); 0.6 ± 0.14 g in series [3] (Mia-PaCa subcutaneous in SCID mice, PO, at study termination). Also, the figures for the “Inhibition of distant metastasis (% control)” value in series [1] (lung surface metastases) and in series [2] (lung surface metastases) were 75-82% and 45-61%, respectively. Besides, in series [3] (mouse, in vivo), the “pancreatic cancer cell (Mia-PaCa) growth in vivo” value is recorded as “able to inhibit”. The body weight loss result in “Pilot toxicity study” is “no body weight loss”. The toxicity result in the series “Pilot toxicity study” is on record as “no apparent toxicity”. Also, in series [4] (RENCA subcutaneous in Balb/c mice, PO), the “Primary tumor weight (% inhibition vs. control)” value is given as “(34-55%)”. Besides, the “renal adenocarcinoma cell (RENCA) growth in vivo” value in series [4] (mouse, in vivo) is on record as “able to inhibit”. Besides, the “inhibition of breast cancer metastasis to the lung” value in [5] is on record as “more than 50%”.

Source of the values: US10711002B2, “Purine compounds and method for the treatment of cancer” (THE ROYAL INSTITUTION FOR THE ADVANCEMENT OF …, priority 2016, dated 2020).
